Experimental data reported in patent US10294202B2, “Pyrrolidinones as herbicides” (FMC Corporation, priority 2013, dated 2019).

How the values were obtained:
nutsedge, yellow = test: Test E preemergence herbicide test; assay type: in vivo, Cyperus esculentus; parameters: key: 0 = no effect, 100 = complete control
Method in brief: (§1)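 Planted in silt loam; preemergence spray, non-phytotoxic solvent/surfactant formulation; greenhouse 21 d; visual score 0–100 vs controls.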

goosegrass = test: Test C pre-/postemergence herbicide test; assay type: in vivo, Eleusine indica
Method in brief: (§2)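 Compound solutions contained surfactant in a non-phytotoxic solvent. These were sprayed onto pots of loam/sand sown with seeds, and onto young plants (2 to 18 cm, 1- to 4-leaf) in sphagnum peat–vermiculite mix. Visual injury scores (0 none, 100 complete control) were recorded after 13 to 15 days.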

foxtail, giant = test: Test E preemergence herbicide test; assay type: in vivo, Setaria faberii; parameters: key: 0 = no effect, 100 = complete control
Method in brief: as §1

crabgrass, Brazil = test: Test E preemergence herbicide test; assay type: in vivo, Digitaria horizontalis; parameters: key: 0 = no effect, 100 = complete control
Method in brief: as §1

sunflower = test: Test C pre-/postemergence herbicide test; assay type: in vivo, Helianthus annuus; conditions: Preemergence
Method in brief: as §2

foxtail, green = test: Test C pre-/postemergence herbicide test; assay type: in vivo, Setaria viridis
Method in brief: as §2

velvetleaf = test: Test E preemergence herbicide test; assay type: in vivo, Abutilon theophrasti; parameters: key: 0 = no effect, 100 = complete control
Method in brief: as §1

[1] = Postemergence, 31 g ai/ha, scale 0 (no effect) to 100 (complete control)
[2] = Postemergence, 62 g ai/ha, scale 0 to 100 (0 no effect, 100 complete control)
[3] = Postemergence, 125 g ai/ha, scale 0 to 100 (0 no effect, 100 complete control)
[4] = Postemergence, 250 g ai/ha, scale 0 to 100 (0 no effect, 100 complete control)
[5] = Preemergence, 62 g ai/ha, scale 0 to 100
[6] = Preemergence, 125 g ai/ha, scale 0 to 100 (0 no effect, 100 complete control)
[7] = Preemergence, 31 g ai/ha, scale 0 to 100 (0 no effect, 100 complete control)

O=C1NCC(c2ccc(F)c(F)c2)C1C(=O)Nc1cccc(F)c1F (stereo not shown) [Compound 17, N-(2,3-difluorophenyl)-4-(3,4-difluorophenyl)-2-oxo-3-pyrrolidinecarboxamide]
10: Plant response rating, Sunflower (sunflower; 62 g ai/ha, scale 0 to 100)
35: Plant response rating, Foxtail, Giant (foxtail, giant; 31 g ai/ha) | Plant response rating, Foxtail, Giant (foxtail, giant; 62 g ai/ha)
98: Plant response rating, Foxtail, Giant (foxtail, giant; 250 g ai/ha) | Plant response rating, Crabgrass, Brazil (crabgrass, Brazil; 250 g ai/ha) | Plant response rating, Foxtail, Green (foxtail, green; [6]) | Plant response rating, Foxtail, Green (foxtail, green; Preemergence, 250 g ai/ha, scale 0 to 100 (0 no effect, 100 complete control))
40: Plant response rating, Crabgrass, Brazil (crabgrass, Brazil; 16 g ai/ha)
20: Plant response rating, Sunflower (sunflower; 125 g ai/ha, scale 0 to 100 (0 no effect, 100 complete control))
15: Plant response rating, Nutsedge, Yellow (nutsedge, yellow; 250 g ai/ha)
65: Plant response rating, Crabgrass, Brazil (crabgrass, Brazil; 31 g ai/ha)
95: Plant response rating, Foxtail, Giant (foxtail, giant; 125 g ai/ha) | Plant response rating, Crabgrass, Brazil (crabgrass, Brazil; 62 g ai/ha) | Plant response rating, Crabgrass, Brazil (crabgrass, Brazil; 125 g ai/ha) | Plant response rating, Foxtail, Green (foxtail, green; [5]) | Foxtail, Green plant response rating (foxtail, green; [7])
50: Plant response rating, Goosegrass (goosegrass; [5])
0: Plant response rating, Nutsedge, Yellow (nutsedge, yellow; 16 g ai/ha) | Plant response rating, Nutsedge, Yellow (nutsedge, yellow; 31 g ai/ha) | Plant response rating, Nutsedge, Yellow (nutsedge, yellow; 62 g ai/ha) | Plant response rating, Nutsedge, Yellow (nutsedge, yellow; 125 g ai/ha) | Plant response rating, Goosegrass (goosegrass; [1]) | Plant response rating, Goosegrass (goosegrass; [2]) | Plant response rating, Goosegrass (goosegrass; [3]) | Plant response rating, Goosegrass (goosegrass; [4]) | Goosegrass plant response rating (goosegrass; [7]) | Plant response rating, Foxtail, Giant (foxtail, giant; 16 g ai/ha) | Plant response rating, Foxtail, Green (foxtail, green; [1]) | Plant response rating, Foxtail, Green (foxtail, green; [2]) | Plant response rating, Foxtail, Green (foxtail, green; [3]) | Plant response rating, Foxtail, Green (foxtail, green; [4]) | Plant response rating, Velvetleaf (velvetleaf; 16 g ai/ha) | Plant response rating, Velvetleaf (velvetleaf; 31 g ai/ha) | Plant response rating, Velvetleaf (velvetleaf; 62 g ai/ha) | Plant response rating, Velvetleaf (velvetleaf; 125 g ai/ha) | Plant response rating, Velvetleaf (velvetleaf; 250 g ai/ha)
85: Plant response rating, Goosegrass (goosegrass; [6])
